Laboratory results reported in patent publication US20160039767A1, “PYRAZOLE DERIVATIVES AS PRMT1 INHIBITORS AND USES THEREOF” (EPIZYME, INC., priority 2013, published 2016).

What follows are compounds tested against T1, PRMT1 (Homo sapiens, UniProt Q99873) (assay: PRMT1 Biochemical Assay (3H-SAM Flashplate, histone H4 peptide substrate)). Conditions: Biochemical IC50 (Numerical, μM) PRMT1, single experiment or average of multiple experiments, Table 2a.
T1 construct: GST-tagged PRMT1; made in house; host or cells: High Five insect cells (baculovirus, pFastBacI)
Source text: S-adenosylmethionine (SAM), S-adenosylhomocysteine (SAH), bicine, Tween20, dimethylsulfoxide (DMSO), bovine skin gelatin (BSG), and Tris(2-carboxyethyl)phosphine hydrochloride solution (TCEP) were purchased from Sigma-Aldrich at the highest level of purity possible. ^3H-SAM was purchase from American Radiolabeled Chemicals with a specific activity of 80 Ci/mmol. 384-well streptavidin Flashplates were purchased from PerkinElmer.
Recombinant baculovirus were generated according to Bac-to-Bac kit instructions (Life Technologies). Protein over-expression was accomplished by infecting exponentially growing High Five insect cell culture at 1.5×10^6 cell/ml with 1:100 ratio of virus. Infections were carried out at 27° C. for 48 hours, harvested by centrifugation, and stored at −80° C. for purification.
GST-tagged PRMT1 was eluted with 50 mM Tris, 2 mM glutathione, pH 7.8, dialysed in buffer A and concentrated to 1 mg/mL.
General Procedure for PRMT1 Enzyme Assays on Peptide Substrates.
The assays were all performed in a buffer consisting of 20 mM Bicine (pH=7.6), 1 mM TCEP, 0.005% BSG, and 0.002% Tween 20, prepared on the day of use. […] DMSO (1 ul) was added to Columns 11, 12, 23, 24, rows A-H for the maximum signal control and 1 ul of SAH, a known product and inhibitor of PRMT1, was added to columns 11, 12, 23, 24, rows I-P for the minimum signal control. A cocktail (40 ul) containing the PRMT1 enzyme was added by Multidrop Combi (Thermo-Fisher). The compounds were allowed to incubate with PRMT1 for 30 min at room temperature, then a cocktail (10 ul) containing SAM and peptide was added to initiate the reaction (final volume=51 ul). […] The assays were stopped by the addition of non-radiolabeled SAM (10 ul) to a final concentration of 300 uM, which dilutes the ^3H-SAM to a level where its incorporation into the peptide substrate is no longer detectable. […] The plates were then read in a PerkinElmer TopCount plate reader to measure the quantity of ^3H-labeled peptide bound to the Flashplate surface, measured as disintegrations per minute (dpm) or alternatively, referred to as counts per minute (cpm).
Where dpm=disintegrations per minute, cmpd=signal in assay well, and min and max are the respective minimum and maximum signal controls.
Where top and bottom are the normally allowed to float, but may be fixed at 100 or 0 respectively in a 3-parameter fit. The Hill Coefficient normally allowed to float but may also be fixed at 1 in a 3-parameter fit. Y is the % inhibition and X is the compound concentration.

T1 sequence (Q99873 with tags, fused parts or gaps): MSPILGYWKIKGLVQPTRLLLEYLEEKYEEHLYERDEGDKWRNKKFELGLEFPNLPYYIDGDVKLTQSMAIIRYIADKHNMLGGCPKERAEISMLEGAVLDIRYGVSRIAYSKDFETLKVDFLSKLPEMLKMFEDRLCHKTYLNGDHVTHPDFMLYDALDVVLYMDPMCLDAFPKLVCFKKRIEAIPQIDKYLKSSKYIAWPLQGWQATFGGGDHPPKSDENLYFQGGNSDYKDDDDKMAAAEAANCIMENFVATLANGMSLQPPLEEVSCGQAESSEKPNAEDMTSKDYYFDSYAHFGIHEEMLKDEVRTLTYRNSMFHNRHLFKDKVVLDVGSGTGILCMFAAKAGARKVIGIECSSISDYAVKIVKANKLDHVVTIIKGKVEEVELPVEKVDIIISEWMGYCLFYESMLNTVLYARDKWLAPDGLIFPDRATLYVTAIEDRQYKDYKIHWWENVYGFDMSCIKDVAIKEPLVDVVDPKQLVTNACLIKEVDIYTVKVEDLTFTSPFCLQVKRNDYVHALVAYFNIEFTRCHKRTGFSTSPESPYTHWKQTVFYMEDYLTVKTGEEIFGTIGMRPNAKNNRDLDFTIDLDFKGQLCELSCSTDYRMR

| SMILES | IC50 [µM] |
| --- | --- |
| CNCCN(C)Cc1c[nH]nc1-c1cc(Cl)c(OC(C)C)c(C(F)(F)F)c1 [Compound 25] | 0.0101 |
| CNCCN(C)Cc1n[nH]cc1-c1cc(OCCCOC)cc(C(F)(F)F)c1 [Compound 27] | 0.139 |
| CNCCN(C)Cc1n[nH]cc1-c1cc(OCC(C)C)cc(C(F)(F)F)c1 [Compound 29] | 0.0663 |
| CCCOc1cc(-c2c[nH]nc2CN(C)CCNC)cc(C(F)(F)F)c1 [Compound 31] | 0.17 |
| CNCCN(C)Cc1n[nH]cc1-c1cc(C(O)C(C)C)cc(C(F)(F)F)c1 (stereo not shown) [Compound 32] | > 1 |
| CNCCN(C)Cc1n[nH]cc1-c1cc(Cl)c(OC(C)C)c(C(F)(F)F)c1 [Compound 33] | 0.0441 |
| CC(C)CCOc1cc(-c2n[nH]cc2CN(C)CCN)cc(C(F)(F)F)c1Cl [Compound 40] | 0.152 |
| CNCCN(C)Cc1c[nH]nc1-c1cc(Oc2cncnc2)cc(C(F)(F)F)c1 [Compound 53] | 0.299 |
| CNCCN(C)Cc1c[nH]nc1-c1cc(OCCC(C)C)c(Cl)c(C(F)(F)F)c1 [Compound 54] | 0.146 |
| CNCCN(C)Cc1c[nH]nc1-c1cc(OCCOC)c(Cl)c(C(F)(F)F)c1 [Compound 55] | 0.163 |
| COCCOc1cc(-c2n[nH]cc2CN(C)CCN)cc(C(F)(F)F)c1Cl [Compound 56] | 0.194 |
| CNCCN(C)Cc1c[nH]nc1-c1cc(OCCCOC)c(Cl)c(C(F)(F)F)c1 [Compound 57] | 0.0318 |
| CNCCN(C)Cc1c[nH]nc1-c1cc(OCC(F)(F)F)cc(C(F)(F)F)c1 [Compound 60] | 0.0576 |

Next, values leading:

| IC50 [µM] | SMILES |
| --- | --- |
| 0.00917 | CN(CCN)Cc1n[nH]cc1-c1ccc(Oc2ccccc2)c(C(F)(F)F)c1 [Compound 26] |
| 0.00659 | CCCOc1ccc(-c2c[nH]nc2CN(C)CCNC)cc1C(F)(F)F [Compound 28] |
| 0.0259 | CNCCN(C)Cc1c[nH]nc1-c1cc(OC2CCCCC2)cc(C(F)(F)F)c1 [Compound 39] |
| 0.0103 | CNCCN(C)Cc1c[nH]nc1-c1cc(OCC2CCCC2)cc(C(F)(F)F)c1 [Compound 45] |
| 0.0165 | CNCCN(C)Cc1c[nH]nc1-c1cc(OCCCC(=O)OC)cc(C(F)(F)F)c1 [Compound 61] |
| 0.0136 | CNCCN(C)Cc1c[nH]nc1-c1cc(CCC(C)C)cc(C(F)(F)F)c1 [Compound 62] |
| 0.0114 | CC(C)CCc1cc(-c2n[nH]cc2CN(C)CCN)cc(C(F)(F)F)c1 [Compound 63] |

The compounds below were run on RKO cells (assay: RKO Methylation Assay (In Cell Western for mono-methyl arginine and DNA content)). Conditions: Homo sapiens, RKO, 72 h, read-out: In Cell Western data (Numerical, μM) EC30.
Type: cell-based
Source text: RKO adherent cells were purchased from ATCC (American Type Culture Collection), Manassas, Va., USA. DMEM/Glutamax medium, penicillin-streptomycin, heat inactivated fetal bovine serum, 0.05% trypsin and D-PBS were purchased from Life Technologies, Grand Island, N.Y., USA. Odyssey blocking buffer, 800CW goat anti-rabbit IgG (H+L) antibody, and Licor Odyssey infrared scanner were purchased from Licor Biosciences, Lincoln, Nebr., USA. Mono-methyl arginine antibody was purchased from Cell Signaling Technology, Danvers, Mass., USA. Methanol was purchased from VWR, Franklin, Mass., USA. 10% Tween 20 was purchased from KPL, Inc., Gaithersburg, Md., USA. DRAQ5 was purchased from Biostatus Limited, Leicestershire, UK.
RKO adherent cells were maintained in growth medium (DMEM/Glutamax medium supplemented with 10% v/v heat inactivated fetal bovine serum and 100 units/mL penicillin-streptomycin) and cultured at 37° C. under 5% CO2.
Cell Treatment, in Cell Western (ICW) for Detection of Mono-Methyl Arginine and DNA Content.
Compound (100 nL) from a 96-well source plate was added directly to 384 well cell plate. Plates were incubated at 37° C., 5% CO2 for 72 hours. After three days of incubation, plates were brought to room temperature outside of the incubator for ten minutes and blotted on paper towels to remove cell media. 50 μL of ice cold 100% methanol was added directly to each well and incubated for 30 min at room temperature. After 30 min, plates were transferred to a Biotek EL406 plate washer and washed 2 times with 100 μL per well of wash buffer (1×PBS). Next 60 μL per well of Odyssey blocking buffer (Odyssey Buffer with 0.1% Tween 20 (v/v)) were added to each plate and incubated 1 hour at room temperature. Blocking buffer was removed and 20 μL per well of primary antibody was added (mono-methyl arginine diluted 1:200 in Odyssey buffer with 0.1% Tween 20 (v/v)) and plates were incubated overnight (16 hours) at 4° C. Plates were washed 5 times with 100 µL per well of wash buffer. Next 20 μL per well of secondary antibody was added (1:200 800CW goat anti-rabbit IgG (H+L) antibody, 1:1000 DRAQ5 (Biostatus limited) in Odyssey buffer with 0.1% Tween 20 (v/v)) and incubated for 1 hour at room temperature. The plates were washed 5 times with 100 μL per well wash buffer then 2 times with 100 μL per well of water. Plates were allowed to dry at room temperature then imaged on the Licor Odyssey machine which measures integrated intensity at 700 nm and 800 nm wavelengths. Both 700 and 800 channels were scanned.
First, the ratio for each well was determined by:
Each plate included fourteen control wells of DMSO only treatment (minimum activation) as well as fourteen control wells for maximum activation treated with 20 μM of a reference compound. The average of the ratio values for each control type was calculated and used to determine the percent activation for each test well in the plate. Reference compound was serially diluted three-fold in DMSO for a total of nine test concentrations, beginning at 20 μM. Percent activation was determined and EC30 curves were generated using triplicate wells per concentration of compound.

| SMILES | EC30 [µM] |
| --- | --- |
| CNCCN(C)Cc1c[nH]nc1-c1ccc(OCCC(C)C)c(C(F)(F)F)c1 [Compound 9] | 1.77 |
| CNCCN(C)Cc1c[nH]nc1-c1cc(Cl)c(OC(C)C)c(C(F)(F)F)c1 [Compound 25] | 0.983 |
| CNCCN(C)Cc1c[nH]nc1-c1cc(OCCc2ccccc2)cc(C(F)(F)F)c1 [Compound 42] | 2.7 |

Same assay, conditions: Homo sapiens, RKO, 72 h, read-out: In Cell Western data EC30

| SMILES | EC30 [µM] |
| --- | --- |
| CNCCN(C)Cc1c[nH]nc1-c1ccc(OCCC(C)C)c(C(F)(F)F)c1 [Compound 9] | < 3 |
| CNCCN(C)Cc1c[nH]nc1-c1cc(Cl)c(OC(C)C)c(C(F)(F)F)c1 [Compound 25] | < 3 |
| CNCCN(C)Cc1c[nH]nc1-c1cc(OCCc2ccccc2)cc(C(F)(F)F)c1 [Compound 42] | < 3 |

Same assay, conditions: Homo sapiens; RKO cells, 72 hours, mono-methyl arginine; class symbols, Table 3; read-out: In Cell Western data EC30

| SMILES | EC30 [µM] |
| --- | --- |
| CCCOc1ccc(-c2c[nH]nc2CN(C)CCNC)cc1C(F)(F)F [Compound 28] | < 3 |

Same assay, conditions: Homo sapiens; RKO cells, 72 hours, mono-methyl arginine; single experiment or average of multiple experiments, Table 3a; read-out: In Cell Western data (Numerical, μM) EC30

| SMILES | EC30 [µM] |
| --- | --- |
| CCCOc1ccc(-c2c[nH]nc2CN(C)CCNC)cc1C(F)(F)F [Compound 28] | 1.1 |
